Activity calls are given as the source filed them. No cut-off for these calls is given here.
Assays:
[1] = system: K562; assay: cells; conditions: Homo sapiens, K562, 48 h
Description: Antiproliferative activity against human K562 cells assessed as inhibition of cell growth incubated for 2 days by CCK8 assay

[2] = biological target: T1, Protein cereblon/Tyrosine-protein kinase ABL1/Breakpoint cluster region protein (Homo sapiens, UniProt P00519+P11274+Q96SW2); assay: Protac activity at CRBN/BCR-ABL in human K562 cells assessed as increase in BCR-ABL degradation at 50 nM by Western blotting analysis; type: cell-based
[3] = biological target: T1, Protein cereblon/Tyrosine-protein kinase ABL1/Breakpoint cluster region protein; assay: Protac activity at CRBN/BCR-ABL in human K562 cells assessed as increase in BCR-ABL degradation at 100 nM by Western blotting analysis; type: cell-based
[4] = biological target: T1, Protein cereblon/Tyrosine-protein kinase ABL1/Breakpoint cluster region protein; assay: Protac activity at CRBN/BCR-ABL in human K562 cells assessed as increase in BCR-ABL degradation at 5 nM by Western blotting analysis; type: cell-based
[5] = biological target: Crk-like protein (Homo sapiens) (UniProt P46109); assay: Inhibition of CRKL phosphorylation at Tyr207 residue in human K562 cells at 100 nM incubated for 6 hrs followed by compound washout measured upto 96 hrs by Western blotting analysis; type: cell-based
[6] = biological target: T2, Bcr/Abl fusion protein (Homo sapiens) (UniProt P00519+P11274); assay: Inhibition of BCR-ABL phosphorylation at Tyr245 residue in human K562 cells at 100 nM incubated for 6 hrs followed by compound washout measured upto 96 hrs by Western blotting analysis; type: cell-based
[7] = biological target: T1, Protein cereblon/Tyrosine-protein kinase ABL1/Breakpoint cluster region protein; assay: Protac activity at CRBN/BCR-ABL in human K562 cells assessed as increase in BCR-ABL degradation at 100 nM incubated for 6 hrs followed by compound washout measured upto 96 hrs by Western blotting analysis; type: cell-based
[8] = biological target: Crk-like protein (Homo sapiens) (UniProt P46109); assay: Inhibition of CRKL phosphorylation at Tyr207 residue in human K562 cells at 0.3 to 100 nM incubated for 16 hrs by Western blotting analysis; type: cell-based; conditions: dose 0.3-100 nM
[9] = biological target: T2, Bcr/Abl fusion protein (Homo sapiens); assay: Inhibition of BCR-ABL phosphorylation at Tyr245 residue in human K562 cells at 0.3 to 100 nM incubated for 16 hrs by Western blotting analysis; type: cell-based; conditions: dose 0.3-100 nM
[10] = biological target: T3, Signal transducer and activator of transcription 5A (Homo sapiens) (UniProt P42229); assay: Inhibition of STAT5 phosphorylation at Tyr694 residue in human K562 cells at 100 nM incubated for 6 hrs followed by compound washout measured upto 96 hrs by Western blotting analysis; type: cell-based
T3 sequence (whole entry): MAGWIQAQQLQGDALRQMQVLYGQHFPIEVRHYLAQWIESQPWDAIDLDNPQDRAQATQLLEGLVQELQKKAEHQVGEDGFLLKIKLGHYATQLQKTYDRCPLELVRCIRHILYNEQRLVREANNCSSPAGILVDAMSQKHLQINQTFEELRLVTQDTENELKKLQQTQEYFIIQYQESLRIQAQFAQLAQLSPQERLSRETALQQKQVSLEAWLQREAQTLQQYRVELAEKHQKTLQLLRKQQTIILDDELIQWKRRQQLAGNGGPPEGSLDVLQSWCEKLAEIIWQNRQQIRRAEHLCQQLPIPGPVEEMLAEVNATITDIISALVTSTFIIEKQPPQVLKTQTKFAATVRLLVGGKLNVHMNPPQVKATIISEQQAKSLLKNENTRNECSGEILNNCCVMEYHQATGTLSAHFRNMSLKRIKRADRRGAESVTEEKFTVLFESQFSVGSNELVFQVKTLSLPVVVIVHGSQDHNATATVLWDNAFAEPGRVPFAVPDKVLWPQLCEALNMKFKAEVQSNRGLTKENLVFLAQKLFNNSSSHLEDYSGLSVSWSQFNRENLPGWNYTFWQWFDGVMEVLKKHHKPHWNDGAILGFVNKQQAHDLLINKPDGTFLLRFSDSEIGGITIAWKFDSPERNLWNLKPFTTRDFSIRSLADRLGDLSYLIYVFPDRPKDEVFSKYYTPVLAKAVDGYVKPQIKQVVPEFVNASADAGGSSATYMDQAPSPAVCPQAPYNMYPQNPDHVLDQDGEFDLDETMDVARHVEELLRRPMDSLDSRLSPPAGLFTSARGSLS

[11] = biological target: T3, Signal transducer and activator of transcription 5A (Homo sapiens); assay: Inhibition of STAT5 phosphorylation at Tyr694 residue in human K562 cells at 0.3 to 100 nM incubated for 16 hrs by Western blotting analysis; type: cell-based; conditions: dose 0.3-100 nM

T1 sequence (P00519 whole entry, looked up): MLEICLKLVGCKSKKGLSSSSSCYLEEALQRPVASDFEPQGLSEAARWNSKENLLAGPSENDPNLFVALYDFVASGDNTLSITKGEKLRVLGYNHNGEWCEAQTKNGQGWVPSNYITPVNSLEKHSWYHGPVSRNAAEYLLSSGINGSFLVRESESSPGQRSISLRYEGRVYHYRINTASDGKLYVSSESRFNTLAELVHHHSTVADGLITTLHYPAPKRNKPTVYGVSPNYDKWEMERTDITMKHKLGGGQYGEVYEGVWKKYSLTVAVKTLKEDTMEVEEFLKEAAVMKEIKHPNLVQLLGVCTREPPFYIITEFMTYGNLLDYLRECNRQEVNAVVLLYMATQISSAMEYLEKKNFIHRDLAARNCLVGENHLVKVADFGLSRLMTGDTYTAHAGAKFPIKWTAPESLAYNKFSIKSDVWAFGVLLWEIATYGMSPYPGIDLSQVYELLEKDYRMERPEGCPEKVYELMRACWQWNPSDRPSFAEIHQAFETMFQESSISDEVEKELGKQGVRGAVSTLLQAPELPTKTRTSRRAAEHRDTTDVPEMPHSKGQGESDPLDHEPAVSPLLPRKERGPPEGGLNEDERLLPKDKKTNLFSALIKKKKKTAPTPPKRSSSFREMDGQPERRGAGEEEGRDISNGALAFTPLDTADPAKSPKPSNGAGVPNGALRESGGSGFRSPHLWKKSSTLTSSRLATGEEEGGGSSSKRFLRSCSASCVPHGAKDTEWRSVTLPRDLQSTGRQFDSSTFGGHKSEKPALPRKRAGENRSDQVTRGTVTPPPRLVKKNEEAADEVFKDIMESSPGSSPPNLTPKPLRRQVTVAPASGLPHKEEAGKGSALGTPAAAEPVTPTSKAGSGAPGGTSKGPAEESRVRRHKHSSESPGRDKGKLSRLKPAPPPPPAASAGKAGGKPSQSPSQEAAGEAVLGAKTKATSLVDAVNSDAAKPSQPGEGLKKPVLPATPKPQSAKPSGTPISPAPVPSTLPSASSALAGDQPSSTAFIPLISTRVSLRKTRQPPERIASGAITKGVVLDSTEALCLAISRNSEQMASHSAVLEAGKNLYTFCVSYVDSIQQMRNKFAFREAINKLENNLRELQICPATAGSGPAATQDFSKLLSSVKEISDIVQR
T1 sequence (P11274 whole entry, looked up): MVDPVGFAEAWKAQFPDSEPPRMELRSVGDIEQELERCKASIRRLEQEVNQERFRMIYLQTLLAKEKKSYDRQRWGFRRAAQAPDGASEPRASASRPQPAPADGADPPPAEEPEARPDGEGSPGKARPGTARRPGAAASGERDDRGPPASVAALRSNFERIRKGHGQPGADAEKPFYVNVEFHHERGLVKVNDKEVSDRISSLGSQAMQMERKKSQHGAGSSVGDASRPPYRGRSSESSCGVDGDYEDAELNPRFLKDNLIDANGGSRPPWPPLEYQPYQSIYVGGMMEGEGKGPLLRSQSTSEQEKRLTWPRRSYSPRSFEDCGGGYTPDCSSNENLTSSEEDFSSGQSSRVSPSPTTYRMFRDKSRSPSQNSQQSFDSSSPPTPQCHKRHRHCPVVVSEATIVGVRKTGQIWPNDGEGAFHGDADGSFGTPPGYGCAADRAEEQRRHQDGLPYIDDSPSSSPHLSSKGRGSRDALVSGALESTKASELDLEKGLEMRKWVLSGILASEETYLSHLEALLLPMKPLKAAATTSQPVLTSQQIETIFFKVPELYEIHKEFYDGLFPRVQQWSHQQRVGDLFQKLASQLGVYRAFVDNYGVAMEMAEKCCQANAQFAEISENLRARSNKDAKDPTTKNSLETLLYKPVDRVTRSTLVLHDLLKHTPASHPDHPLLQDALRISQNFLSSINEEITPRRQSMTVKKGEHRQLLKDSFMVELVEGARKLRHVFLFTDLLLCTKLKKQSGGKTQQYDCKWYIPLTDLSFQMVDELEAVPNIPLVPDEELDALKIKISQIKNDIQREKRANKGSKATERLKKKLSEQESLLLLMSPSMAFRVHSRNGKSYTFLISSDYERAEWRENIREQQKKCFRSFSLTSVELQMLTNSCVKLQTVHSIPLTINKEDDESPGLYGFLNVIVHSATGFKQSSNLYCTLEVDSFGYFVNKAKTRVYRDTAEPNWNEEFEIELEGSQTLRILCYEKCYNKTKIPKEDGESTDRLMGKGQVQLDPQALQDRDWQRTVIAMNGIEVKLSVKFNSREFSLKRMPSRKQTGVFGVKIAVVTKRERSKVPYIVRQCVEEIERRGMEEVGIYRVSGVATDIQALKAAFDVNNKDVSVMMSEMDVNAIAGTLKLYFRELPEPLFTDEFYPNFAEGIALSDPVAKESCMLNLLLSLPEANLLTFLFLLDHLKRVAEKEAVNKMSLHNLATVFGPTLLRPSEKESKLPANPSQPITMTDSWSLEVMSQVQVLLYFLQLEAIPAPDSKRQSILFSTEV
T1 sequence (Q96SW2 whole entry, looked up): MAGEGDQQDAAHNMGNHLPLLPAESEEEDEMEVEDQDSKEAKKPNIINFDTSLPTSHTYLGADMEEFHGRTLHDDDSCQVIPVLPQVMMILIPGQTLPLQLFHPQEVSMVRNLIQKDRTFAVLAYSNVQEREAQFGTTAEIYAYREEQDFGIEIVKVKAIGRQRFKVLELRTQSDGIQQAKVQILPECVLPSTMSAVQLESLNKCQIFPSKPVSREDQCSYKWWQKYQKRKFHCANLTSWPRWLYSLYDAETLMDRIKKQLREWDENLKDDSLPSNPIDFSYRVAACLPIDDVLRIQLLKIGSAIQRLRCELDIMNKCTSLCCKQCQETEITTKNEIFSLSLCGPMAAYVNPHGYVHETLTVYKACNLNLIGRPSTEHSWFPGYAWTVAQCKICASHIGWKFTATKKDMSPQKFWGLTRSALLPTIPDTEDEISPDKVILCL
T2 sequence (P00519 whole entry, looked up, the tested form may be a part): as the sequence (P00519 whole entry, looked up) above
T2 sequence (P11274 whole entry, looked up, the tested form may be a part): as the sequence (P11274 whole entry, looked up) above
Sequence of Crk-like protein (Homo sapiens) (P46109 whole entry, the tested form may be a part): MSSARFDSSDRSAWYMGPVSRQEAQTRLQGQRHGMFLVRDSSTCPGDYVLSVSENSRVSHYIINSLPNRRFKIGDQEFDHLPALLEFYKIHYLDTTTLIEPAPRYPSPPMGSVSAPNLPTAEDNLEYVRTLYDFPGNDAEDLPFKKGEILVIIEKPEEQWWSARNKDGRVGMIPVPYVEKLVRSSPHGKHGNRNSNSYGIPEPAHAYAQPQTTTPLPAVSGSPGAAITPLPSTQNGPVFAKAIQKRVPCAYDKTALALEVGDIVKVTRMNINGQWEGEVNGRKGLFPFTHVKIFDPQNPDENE

| SMILES | IC50 [1] [nM] | Activity [2] [%] | Activity [3] [%] | Activity [4] [%] | further results |
| --- | --- | --- | --- | --- | --- |
| O=C1CCC(N2C(=O)c3cccc(NCCCCCCC(=O)N4CCN(c5ncc(C(=O)Nc6ccc(OC(F)(F)Cl)cc6)cc5-c5ccn[nH]5)CC4)c3C2=O)C(=O)N1 (stereo not drawn) | 380 | 1 | – | – | – |
| O=C1CCC(N2C(=O)c3cccc(NCC(=O)N4CCN(c5ncc(C(=O)Nc6ccc(OC(F)(F)Cl)cc6)cc5-c5ccn[nH]5)CC4)c3C2=O)C(=O)N1 (stereo not drawn) | 572 | 1.82 | – | – | – |
| O=C1CCC(N2Cc3c(SCCCCCCCN4CCN(C5CCN(c6ncc(C(=O)Nc7ccc(OC(F)(F)Cl)cc7)cc6-c6ccn[nH]6)CC5)CC4)cccc3C2=O)C(=O)N1 (stereo not drawn) | 47 | – | 64.4 | 21.9 | – |
| Nc1cccc2c1C(=O)N(C1CCC(=O)NC1=O)C2=O (stereo not drawn) [POMALIDOMIDE] | > 10000 | – | – | – | – |
| CN1C(=O)CCC(N2Cc3c(SCCCCCCN4CCN(C5CCN(c6ncc(C(=O)Nc7ccc(OC(F)(F)Cl)cc7)cc6-c6ccn[nH]6)CC5)CC4)cccc3C2=O)C1=O (stereo not drawn) | – | – | – | – | inhibition [5]: inactive; inhibition [6]: inactive; Activity [7]: inactive; Activity [8]: Active; Activity [9]: Active; inhibition [10]: inactive; Activity [11]: Active |
| O=C1CCC(N2Cc3c(C#CCCCCCCN4CCN(C5CCN(c6ncc(C(=O)Nc7ccc(OC(F)(F)Cl)cc7)cc6-c6ccn[nH]6)CC5)CC4)cccc3C2=O)C(=O)N1 (stereo not drawn) | 124 | – | 29.9 | 38.4 | – |
| O=C1CCC(N2C(=O)c3cccc(NCCOCCOCCOCCOCCC(=O)N4CCN(c5ncc(C(=O)Nc6ccc(OC(F)(F)Cl)cc6)cc5-c5ccn[nH]5)CC4)c3C2=O)C(=O)N1 (stereo not drawn) | 886 | 4.94 | – | – | – |
| O=C1CCC(N2Cc3c(SCCCCCCNC4CCN(c5ncc(C(=O)Nc6ccc(OC(F)(F)Cl)cc6)cc5-c5ccn[nH]5)CC4)cccc3C2=O)C(=O)N1 (stereo not drawn) | 228 | – | 70.9 | 29.4 | – |
| O=C1CCC(N2Cc3c(SCCCCN4CCN(C5CCN(c6ncc(C(=O)Nc7ccc(OC(F)(F)Cl)cc7)cc6-c6ccn[nH]6)CC5)CC4)cccc3C2=O)C(=O)N1 (stereo not drawn) | 34.7 | – | 86.1 | 38.9 | – |
| O=C1CCC(N2C(=O)c3cccc(OCCCC(=O)N4CCN(c5ncc(C(=O)Nc6ccc(OC(F)(F)Cl)cc6)cc5-c5ccn[nH]5)CC4)c3C2=O)C(=O)N1 (stereo not drawn) | 1120 | -1.35 | – | – | – |
| O=C1CCC(N2Cc3c(SCCCCCNC4CCN(c5ncc(C(=O)Nc6ccc(OC(F)(F)Cl)cc6)cc5-c5ccn[nH]5)CC4)cccc3C2=O)C(=O)N1 (stereo not drawn) | 978 | – | 29.7 | -3.96 | – |
| O=C1CCC(N2Cc3c(SCCCCN4CCN(c5ncc(C(=O)Nc6ccc(OC(F)(F)Cl)cc6)cc5-c5ccn[nH]5)CC4)cccc3C2=O)C(=O)N1 (stereo not drawn) | 30.3 | – | 87.8 | 40.8 | – |
| O=C1CCC(N2Cc3c(SCCOCC(=O)N4CCN(c5ncc(C(=O)Nc6ccc(OC(F)(F)Cl)cc6)cc5-c5ccn[nH]5)CC4)cccc3C2=O)C(=O)N1 (stereo not drawn) | 154 | 10.2 | – | – | – |
| O=C1CCC(N2Cc3c(OCCCCN4CCN(c5ncc(C(=O)Nc6ccc(OC(F)(F)Cl)cc6)cc5-c5ccn[nH]5)CC4)cccc3C2=O)C(=O)N1 (stereo not drawn) | 67.2 | – | 89.2 | 30.6 | – |
| O=C1CCC(N2Cc3c(SCCCCNC4CCN(c5ncc(C(=O)Nc6ccc(OC(F)(F)Cl)cc6)cc5-c5ccn[nH]5)CC4)cccc3C2=O)C(=O)N1 (stereo not drawn) | 322 | – | 41.6 | 5.76 | – |
| O=C1CCC(N2C(=O)c3cccc(NCCCC(=O)N4CCN(c5ncc(C(=O)Nc6ccc(OC(F)(F)Cl)cc6)cc5-c5ccn[nH]5)CC4)c3C2=O)C(=O)N1 (stereo not drawn) | 130 | 9.05 | – | – | – |
| Nc1cccc2c1CN(C1CCC(=O)NC1=O)C2=O (stereo not drawn) [LENALIDOMIDE] | > 10000 | – | – | – | – |
| O=C1CCC(N2Cc3c(C#CCCCCN4CCN(c5ncc(C(=O)Nc6ccc(OC(F)(F)Cl)cc6)cc5-c5ccn[nH]5)CC4)cccc3C2=O)C(=O)N1 (stereo not drawn) | 40.9 | – | 89.1 | 32.8 | – |
